Experimental findings from patent publication US20210002712A1, “PHOSPHATIDIC ACID SENSOR” (NATIONAL UNIVERSITY CORPORATION CHIBA UNIVERSITY, priority 2019, published 2021) are described below.

One assay concerns the target PLD2 (Homo sapiens, UniProt O14939). As to conditions: COS-7 cells, 750 nM for 4 h.
The target in another assay is T1, EGFP-DGKγ (Homo sapiens, UniProt P49619).
T1 construct: expressed in transfected cells; host or cells: COS-7
Put plainly: PMA-induced translocation of EGFP-DGKγ in COS-7 cells. It is filed as cell-based. As to conditions: 1 μM PMA for 30 min. As to the method: FIGS. 19 and 20. […] Representative data from three independent experiments are shown. Scale bars, 20 μm. FIG. 20.
COS-7 cells were maintained in Dulbecco's modified Eagle's medium supplemented with 10% fetal bovine serum, 100 units/ml penicillin, and 100 μg/ml streptomycin at 37° C. in an atmosphere containing 5% CO2. Cells were transiently transfected using PolyFect reagent as described by the manufacturer.
The cells were then fixed in 4% paraformaldehyde. The coverslips were mounted using Vectashield. […] Images were acquired using FV-10 ASW software.

Assay [1] is described as follows: Liposome cosedimentation assay, 18:1/18:1-PA liposomes. The class given is binding. As to conditions: 6×His-SUMO-tagged protein 2.5 μM; PA 150 μM. As to the method: FIG. 1. A schematic architecture of α-Syn and its deletion mutants. FIG. 2. The purified SUMO-tagged-α-Syn and its deletion mutant protein (2.5 μM) were incubated with 18:1/18:1-PA or 18:1/18:1-PS liposomes (PA or […]: 150 μM) and then separated by ultracentrifugation. SDS-PAGE (15%) was performed and separated proteins were stained with Coomassie Brilliant Blue. The positions of α-Syn and its mutants are indicated with arrow heads. The amounts of protein in the supernatant (S) and precipitant (P) were quantified by densitometry using ImageJ software. Binding activity was calculated as the percentage of the precipitate band intensity compared to the total band intensities. Values are presented as the mean±S.D. of four independent experiments. **P<0.01 versus the 18:1/18:1-PS liposome.
FIG. 3. The purified SUMO-tagged-α-Syn-N protein (2.5 μM) was incubated with control (PC and Chol alone), 16:0/16:0-PA, 16:0/18:1-PA, 18:1/18:1-PA, or 18:0/18:0-PA liposomes (PA: 150 μM) and then separated by ultracentrifugation. SDS-PAGE (15%) was performed and separated proteins were stained with Coomassie Brilliant Blue. The position of α-Syn-N is indicated with an arrow head.
FIG. 4. The amounts of protein in the supernatant (S) and precipitant (P) were quantified by densitometry using ImageJ software. Binding activity was calculated as the percentage of the precipitate band intensity compared to the total band intensities. Values are presented as the mean±S.D. of three independent experiments. #P<0.05, ##P<0.01, ###P<0.005 versus the 18:1/18:1-PA-liposome, *P<0.05, ***P<0.005 versus the control liposome.
FIG. 5. The purified SUMO-tagged-α-Syn protein (0.1 μM) was incubated with 18:1/18:1-PA liposomes of the indicated concentrations (0-20 μM) and then separated by ultracentrifugation. SDS-PAGE (15%) was performed and separated proteins were detected with silver staining. The position of α-Syn-N is indicated with an arrow head.
FIG. 6. The amounts of protein in the precipitant were quantified by densitometry using ImageJ software. Binding activity was calculated as the percentage of the precipitate band intensity compared to the total band intensities (Input). Values are presented as the mean±S.D. of four independent experiments. The Kd was determined using GraphPad Prism 8 (Dissociation-One phase exponential decay).
FIG. 7. The purified SUMO-tagged-α-Syn protein (0.1 μM) was incubated with 18:1/18:1-PA, 18:1/18:1-PS, 18:1/18:1-PI(4,5)P2, 18:1/18:1-PE and d18:1/18:1-C1P liposomes (20 μM) and then separated by ultracentrifugation. SDS-PAGE (15%) analysis was performed and separated proteins were detected with silver staining. The position of α-Syn-N is indicated with an arrow head.
FIG. 8. The amounts of protein in the precipitant were quantified by densitometry using ImageJ software. The PA binding activity of α-Syn-N was set to 100%. Values are presented as the mean±S.D. of three independent experiments. ***P<0.005 versus 18:1/18:1-PA liposome.
The following lipid mixtures were used: the control liposome: Chol (50 mol %) and 16:0/18:1-PC (50 mol %); and the PA liposome: Chol (50 mol %), 16:0/18:1-PC (35 mol %) and each PA species (15 mol %). The combined dried lipid mixture was resuspended in HEPES buffer. Then, the lipid mixture was vortexed for 1 min. Liposome formation was induced by sonication at 75° C. The purified SUMO-tagged α-Syn and its deletion mutants (2.5 μM) were dissolved in HEPES buffer and incubated with the control or PA-containing liposomes at room temperature for 1 h. Then, the samples were centrifuged at 200,000 g at 4° C. for 1 h. The precipitant was dissolved in HEPES buffer. The supernatant and pellet were analyzed by SDS-PAGE followed by Coomassie Brilliant Blue and silver staining. Quantitative densitometry was performed using ImageJ software. Since the lipid forms a bilayer, half of the actual concentration was considered.

T1 sequence (P49619 whole entry): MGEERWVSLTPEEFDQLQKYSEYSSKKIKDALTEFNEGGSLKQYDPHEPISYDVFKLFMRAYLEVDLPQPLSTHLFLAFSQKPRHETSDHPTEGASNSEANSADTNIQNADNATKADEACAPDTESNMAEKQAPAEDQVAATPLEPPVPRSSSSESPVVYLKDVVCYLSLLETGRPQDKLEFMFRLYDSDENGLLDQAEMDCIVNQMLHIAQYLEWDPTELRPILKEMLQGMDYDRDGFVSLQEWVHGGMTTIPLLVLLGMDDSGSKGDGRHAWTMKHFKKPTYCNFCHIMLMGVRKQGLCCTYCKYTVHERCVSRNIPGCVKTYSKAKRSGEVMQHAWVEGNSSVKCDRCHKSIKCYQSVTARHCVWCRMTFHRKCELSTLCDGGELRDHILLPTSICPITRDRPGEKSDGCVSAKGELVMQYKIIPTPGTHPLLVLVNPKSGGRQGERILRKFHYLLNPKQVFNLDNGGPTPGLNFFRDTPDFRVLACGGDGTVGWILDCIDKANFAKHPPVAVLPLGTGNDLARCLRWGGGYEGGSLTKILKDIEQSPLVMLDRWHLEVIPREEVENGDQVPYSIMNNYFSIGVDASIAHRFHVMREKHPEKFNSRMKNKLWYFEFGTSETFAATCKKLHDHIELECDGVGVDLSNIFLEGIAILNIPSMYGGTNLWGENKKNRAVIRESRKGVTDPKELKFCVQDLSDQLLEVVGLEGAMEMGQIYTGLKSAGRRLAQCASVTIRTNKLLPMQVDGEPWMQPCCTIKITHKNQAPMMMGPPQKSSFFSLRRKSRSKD
Chain of PLD2 (O14939 whole entry): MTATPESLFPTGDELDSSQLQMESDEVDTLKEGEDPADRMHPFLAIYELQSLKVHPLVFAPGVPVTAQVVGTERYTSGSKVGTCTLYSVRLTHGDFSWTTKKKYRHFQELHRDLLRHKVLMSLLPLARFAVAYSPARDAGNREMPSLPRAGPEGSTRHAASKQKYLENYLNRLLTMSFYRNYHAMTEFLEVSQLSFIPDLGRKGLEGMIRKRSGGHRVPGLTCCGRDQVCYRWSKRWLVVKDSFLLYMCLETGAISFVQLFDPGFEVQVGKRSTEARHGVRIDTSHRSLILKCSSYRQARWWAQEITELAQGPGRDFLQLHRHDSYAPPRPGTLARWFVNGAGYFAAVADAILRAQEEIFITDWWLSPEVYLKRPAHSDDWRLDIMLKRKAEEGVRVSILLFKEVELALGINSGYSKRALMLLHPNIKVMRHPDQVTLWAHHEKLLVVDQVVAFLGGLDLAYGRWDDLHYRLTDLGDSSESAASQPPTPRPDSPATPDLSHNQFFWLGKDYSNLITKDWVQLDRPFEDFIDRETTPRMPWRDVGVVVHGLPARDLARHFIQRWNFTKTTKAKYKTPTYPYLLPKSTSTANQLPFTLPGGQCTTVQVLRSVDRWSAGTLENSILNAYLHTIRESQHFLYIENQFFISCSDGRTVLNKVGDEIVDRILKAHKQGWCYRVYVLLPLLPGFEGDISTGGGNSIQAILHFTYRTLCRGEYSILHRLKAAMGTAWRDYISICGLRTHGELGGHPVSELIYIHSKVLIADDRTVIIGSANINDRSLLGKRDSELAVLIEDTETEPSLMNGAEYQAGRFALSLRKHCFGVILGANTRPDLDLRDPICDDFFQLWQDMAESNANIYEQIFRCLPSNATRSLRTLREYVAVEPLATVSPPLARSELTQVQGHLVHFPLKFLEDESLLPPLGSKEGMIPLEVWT
Description for PLD2: EGFP-PLD2 was coexpressed with either the DsRed monomer alone or DsRed monomer α-Syn-N in COS-7 cells as indicated. After 24 h of transfection, the cells were incubated with 750 nM FIPI in growth medium for 4 h and then fixed and imaged. […] The localization of EGFP-PLD2-WT and DsRed monomer α-Syn-N was quantified using ImageJ software. COS-7 cells were grown and transfected as described in the above section. […] The cells were then fixed in 4% paraformaldehyde. The coverslips were mounted using Vectashield. Fluorescence images were acquired using an Olympus FV1000-D (IX81) confocal laser scanning microscope. GFP fluorescence was excited at 488 nm, and DsRed fluorescence was excited at 543 nm. Images were acquired using FV-10 ASW software.

On to `O=C(NCCN1CCC(n2c(=O)[nH]c3ccccc32)CC1)c1cc2cc(F)ccc2[nH]1` [FIPI, 5-fluoro-2-indolyl deschlorohalopemide], for which the “effect on colocalization of EGFP-PLD2 and DsRed-α-Syn-N” value at PLD2 is on record as “markedly attenuated their colocalization”.
On to `CCCCCCCCCCCCCC(=O)O[C@@H]1[C@@H](C)[C@@]2(O)[C@@H](C=C(CO)C[C@]3(O)C(=O)C(C)=C[C@@H]23)[C@@H]2C(C)(C)[C@]12OC(C)=O` [PMA, phorbol 12-myristate 13-acetate], for which, on EGFP-DGKγ, the “translocation of EGFP-DGKγ” value is recorded as “led to the translocation of EGFP-DGKγ from the cytoplasm to the plasma membrane”.
As for “α-Syn-C: C-terminal region deletion mutant of α-Syn (Lys96-Ala140), 6×His-SUMO-tagged”, the “PA-binding activity (18:1/18:1-PA liposomes)” value in assay [1] is “failed to show substantial PA-binding activity”.
